Results on 9 molecules are retold here after paper PMC8512054 (Molecules, 2021).

The target in data set [1] is T1, MAO-B (Homo sapiens, UniProt P27338).
T1 sequence (P27338 1-520): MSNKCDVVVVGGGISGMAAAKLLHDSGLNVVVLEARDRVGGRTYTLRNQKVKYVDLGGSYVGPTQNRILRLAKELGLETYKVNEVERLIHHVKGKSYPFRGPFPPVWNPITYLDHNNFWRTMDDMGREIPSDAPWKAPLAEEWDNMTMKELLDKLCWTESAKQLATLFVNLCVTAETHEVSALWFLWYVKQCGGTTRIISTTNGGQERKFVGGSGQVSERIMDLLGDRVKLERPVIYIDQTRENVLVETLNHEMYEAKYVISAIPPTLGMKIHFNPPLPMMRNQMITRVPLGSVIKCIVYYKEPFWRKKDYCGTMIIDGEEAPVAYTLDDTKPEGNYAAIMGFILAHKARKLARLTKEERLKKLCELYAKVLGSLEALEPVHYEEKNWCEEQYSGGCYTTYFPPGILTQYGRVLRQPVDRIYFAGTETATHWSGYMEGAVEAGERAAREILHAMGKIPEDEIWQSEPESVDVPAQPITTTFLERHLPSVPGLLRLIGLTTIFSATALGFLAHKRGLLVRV
Also noted: purchased Sigma-Aldrich; method as in PMID 32246471. Particulars: competitive inhibitor; read-out: Ki for MAO-B (earlier study); cited from earlier work.

On the set-up of data set [2]: method as in PMID 29532412. Particulars: PAMPA-BBB; cited from earlier work. On the technique in general: The PAMPA barrier holds no transporters, so it reflects passive diffusion.
Data set [3] can be described thus: BBB permeation by PAMPA method. Format: in vitro ADME. Particulars: for Prediction (BBB permeation): class from experimental Pe; for Effective permeability (Pe): read-out: Experimental Pe. From the text: The CNS bioavailability of the molecules was further ascertained by the PAMPA method.
A further data set deals with BACE1 (Homo sapiens, UniProt P56817). In words: BACE1 activity assay kit (β-secretase, CS0010), fluorescence. Particulars: for remaining activity at 10 µM: read-out: % Residual Activity (at 10 µM) BACE1.
Data set [4] has as its target T1, MAO-B. In words: MAO-B enzyme-inhibition kinetics (Lineweaver–Burk and secondary plots). Format: biochemical. More on the design: purchased Sigma-Aldrich. Particulars: for Mode of MAO-B inhibition: Lineweaver–Burk plots; for Ki: from secondary plot of Lineweaver–Burk slopes. The text has this:
The obtained results are represented in Figure 1.
Figure 1 Lineweaver–Burk plots for MAO-B inhibition by NEA1 and NEA3 (A,C), and their respective secondary plots (B,D) of the slopes vs. inhibitor concentrations.

The target of data set [5] is T1, MAO-B. The data set is described as follows: MAO-B inhibitor-reversibility analysis by dialysis. More on the design: purchased Sigma-Aldrich. Particulars: for Reversibility of MAO-B inhibition: dialysis method; for Relative MAO-B activity, dialyzed (AD) / Relative MAO-B activity, undialyzed (AU): ~2 × IC50 (NEA1 0.032, NEA3 0.020, lazabemide 0.22, pargyline 0.28 μM); for Relative MAO-B activity, dialyzed (AD): dialysis 6 h; for Relative MAO-B activity, undialyzed (AU): preincubated 30 min. The format is biochemical. On the procedure: The reversibility of MAO-B inhibition by NEA1 and NEA3 was evaluated using a standardized dialysis method. […] The activities in dialyzed (AD) and undialyzed (AU) samples were compared and reversibility patterns were determined.
Dialysis was performed for 6 h with a buffer change after 3 h with duplicate experiments.

The next data set concerns the target T2, recombinant MAO-A (Homo sapiens, UniProt P21397).
T2 sequence (P21397 1-527): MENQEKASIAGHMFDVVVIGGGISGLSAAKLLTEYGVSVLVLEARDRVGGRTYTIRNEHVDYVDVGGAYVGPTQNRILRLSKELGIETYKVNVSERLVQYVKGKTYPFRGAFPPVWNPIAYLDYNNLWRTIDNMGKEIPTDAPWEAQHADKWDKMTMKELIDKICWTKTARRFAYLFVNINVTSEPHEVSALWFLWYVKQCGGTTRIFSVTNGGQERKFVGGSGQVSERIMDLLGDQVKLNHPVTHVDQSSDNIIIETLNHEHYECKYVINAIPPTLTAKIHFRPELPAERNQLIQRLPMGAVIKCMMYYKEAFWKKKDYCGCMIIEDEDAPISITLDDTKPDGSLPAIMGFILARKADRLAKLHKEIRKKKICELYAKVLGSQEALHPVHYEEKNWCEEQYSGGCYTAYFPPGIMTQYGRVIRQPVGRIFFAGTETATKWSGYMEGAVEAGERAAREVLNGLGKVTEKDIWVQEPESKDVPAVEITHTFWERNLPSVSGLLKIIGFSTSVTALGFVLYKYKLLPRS
The data set is described as follows: MAO-A inhibitory assay (recombinant MAO-A, kynuramine substrate). Particulars: for remaining activity at 10 µM: read-out: % Residual Activity (at 10 µM) MAO-A.

Data set [6] deals with T1, MAO-B. In words: MAO-B inhibitory assay (recombinant MAO-B, benzylamine substrate). Particulars: for Selectivity index (SI) for MAO-B as compared with MAO-A: from the IC50 values of MAO-A and MAO-B; for remaining activity at 10 µM: read-out: % Residual Activity (at 10 µM) MAO-B.
Method: (§1) MAO inhibitory assay was assessed in accordance with the previously standardized methods of assessing recombinant MAO-A and MAO-B by using the substrates (0.06 mM kynuramine and 0.3 mM benzylamine, respectively) [38, 39, 40]. […] The enzymes and chemicals were purchased from Sigma-Aldrich (St. Louis, MO, USA).
(§2) Initially, the inhibitory activities of the synthesized compounds were identified at a concentration of 10 μM against MAO-A, MAO-B, and BACE1. […] The obtained IC50 values thus compared were used to deduce the SI values.

Read-outs that look alike come from different tables or passages of the source. A value given as a limit tells only on which side of the number the result lay.

Chain of BACE1 (P56817 46-501): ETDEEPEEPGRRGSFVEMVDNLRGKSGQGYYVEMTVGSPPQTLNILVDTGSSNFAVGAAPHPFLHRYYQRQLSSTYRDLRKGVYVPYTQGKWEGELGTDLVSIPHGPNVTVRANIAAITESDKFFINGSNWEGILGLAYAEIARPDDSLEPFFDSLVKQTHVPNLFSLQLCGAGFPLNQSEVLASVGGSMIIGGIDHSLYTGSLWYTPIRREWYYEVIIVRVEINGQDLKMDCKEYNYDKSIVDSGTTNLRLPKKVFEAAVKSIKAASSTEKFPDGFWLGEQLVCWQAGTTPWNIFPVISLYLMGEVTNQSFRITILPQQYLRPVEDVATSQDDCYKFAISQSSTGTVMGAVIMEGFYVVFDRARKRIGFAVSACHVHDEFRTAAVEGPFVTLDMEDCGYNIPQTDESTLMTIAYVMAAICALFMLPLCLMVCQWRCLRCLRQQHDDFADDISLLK
Method for BACE1: as §1, §2
Method for recombinant MAO-A: as §1, §2

The term Ki denotes a measure of affinity in units of concentration, obtained from inhibition or displacement. For the molecule `C=CC(=O)Nc1cccc([N+](=O)[O-])c1` [AD9, N-(3-nitrophenyl)prop-2 enamide], the Ki on MAO-B [1] was 39 ± 5 nM.
Consider `NCCc1ccc(O)c(O)c1` [Dopamine, reference compound], for which the “Bibliography Pe” value in data set [2] is 0.2 ×10⁻⁶ cm/s. Besides, in data set [3], the “Prediction (BBB permeation)” value is “CNS− (CNS− (low BBB permeation predicted: Pe (10^−6 cm/s) < 2.00))” and the Effective permeability (Pe) turned out to be 0.26 ± 0.04 ×10⁻⁶ cm/s.
With `CCn1cc(C(=O)O)c(=O)c2cc(F)c(N3CCNC(C)C3)c(F)c21` (stereo not drawn) [Lomefloxacin, reference compound], in data set [3], the “Prediction (BBB permeation)” value was “CNS− (CNS− (low BBB permeation predicted: Pe (10^−6 cm/s) < 2.00))” and the Effective permeability (Pe) was determined as 1.31 ± 0.51 ×10⁻⁶ cm/s.
In general, IC50 refers to the midpoint of a concentration-inhibition curve. `O=C(C=Cc1ccc([N+](=O)[O-])cc1)Nc1ccccc1` [NEA1, 3-(4-Nitrophenyl)-N-phenylacrylamide]: on BACE1, the IC50 was 8210 ± 30 nM and the remaining activity at 10 µM is 34.9 ± 0.5%. Moreover, on MAO-B [4], the “Mode of MAO-B inhibition” value was “competitive” and the affinity corresponds to a Ki of 13 ± 5 nM. On MAO-B [5], the “Reversibility of MAO-B inhibition” value is recorded as “reversible”; the “Relative MAO-B activity, dialyzed (AD)” value worked out at 79.5%; the “Relative MAO-B activity, undialyzed (AU)” value was 29.2%. Also, at recombinant MAO-A, the IC50 was over 40000 nM and the remaining activity at 10 µM was found to be 91.9 ± 5.9%. In addition, in [3], the “Prediction (BBB permeation)” value is given as “CNS+ (CNS+ (high BBB permeation predicted: Pe (10^−6 cm/s) > 4.00))” and the Effective permeability (Pe) came to 14.4 ± 0.35 ×10⁻⁶ cm/s. At MAO-B [6], the IC50 is 16 ± 1 nM, the “Selectivity index (SI) for MAO-B as compared with MAO-A” value (“Selectivity index (SI) for MAO-B” for short) is on record as over 2500.0 and the remaining activity at 10 µM was 3.88 ± 0.6%.
The melting point is the temperature of the solid-liquid transition. In turn, `O=C(C=Cc1ccc([N+](=O)[O-])cc1)Nc1ccc(Cl)cc1` [NEA2, N-(4-Chlorophenyl)-3-(4-nitrophenyl)acrylamide] displayed a melting point of 224 to 226 °C. The remaining activity at 10 µM on BACE1 was found to be 88.1 ± 0.3%. For the same molecule, on recombinant MAO-A, the IC50 was over 40000 nM and the remaining activity at 10 µM turned out to be 95 ± 0.5%. Besides, in data set [3], the “Prediction (BBB permeation)” value is listed as “CNS+ (CNS+ (high BBB permeation predicted: Pe (10^−6 cm/s) > 4.00))” and the Effective permeability (Pe) is 13.5 ± 0.26 ×10⁻⁶ cm/s. In addition, at MAO-B [6], the IC50 worked out at 5280 ± 90 nM, the “Selectivity index (SI) for MAO-B” value was over 7.58 and the remaining activity at 10 µM is 35.8 ± 6.2%.
In the case of `O=C(C=Cc1ccc([N+](=O)[O-])cc1)Nc1ccc(F)cc1` [NEA3, N-(4-Fluorophenyl)-3-(4-nitrophenyl)acrylamide], the melting point was 208 to 210 °C. Further, at BACE1, the IC50 was determined as 8020 ± 130 nM and the remaining activity at 10 µM amounted to 34.4 ± 0.2%. Moreover, on MAO-B [4], the “Mode of MAO-B inhibition” value is “competitive” and the affinity corresponds to a Ki of 4.9 ± 0.2 nM. At MAO-B [5], the “Reversibility of MAO-B inhibition” value is listed as “reversible”; the “Relative MAO-B activity, dialyzed (AD)” value turned out to be 79.5%; the “Relative MAO-B activity, undialyzed (AU)” value came to 32.8%. Further, at recombinant MAO-A, the IC50 is 15200 ± 600 nM and the remaining activity at 10 µM turned out to be 61.9 ± 0.4%. Also, in data set [3], the “Prediction (BBB permeation)” value was “CNS+ (CNS+ (high BBB permeation predicted: Pe (10^−6 cm/s) > 4.00))” and the Effective permeability (Pe) was 16.4 ± 0.17 ×10⁻⁶ cm/s. Also, on MAO-B [6], the IC50 stood at 9.2 ± 0.3 nM, the “Selectivity index (SI) for MAO-B” value amounted to 1652.2 and the remaining activity at 10 µM came to 3.04 ± 0.5%.
Molecule `O=C(C=Cc1ccc([N+](=O)[O-])cc1)NC1CCCCC1` [NEA4, N-Cyclohexyl-3-(4-nitrophenyl)acrylamide] returned a melting point of 166 to 168 °C. Moreover, the remaining activity at 10 µM at BACE1 is 61.2 ± 3%. Further, on recombinant MAO-A, the IC50 was over 40000 nM and the remaining activity at 10 µM amounted to 85.6 ± 1.7%. In data set [3], the “Prediction (BBB permeation)” value is reported as “CNS+ (CNS+ (high BBB permeation predicted: Pe (10^−6 cm/s) > 4.00))” and the Effective permeability (Pe) is 15.5 ± 0.62 ×10⁻⁶ cm/s. In addition, on MAO-B [6], the IC50 is 74 ± 20 nM, the “Selectivity index (SI) for MAO-B” value is listed as over 540.5 and the remaining activity at 10 µM was determined as 9.52 ± 3.5%.
In turn, `Cc1ccccc1NC(=O)/C=C/c1ccc([N+](=O)[O-])cc1` [NEA5, 3-(4-Nitrophenyl)-N-(O-tolyl)acrylamide] had a melting point of 200 to 203 °C. Moreover, at BACE1, the IC50 turned out to be 17700 ± 1700 nM and the remaining activity at 10 µM came out at 44 ± 0.2%. For the same molecule, on recombinant MAO-A, the IC50 was over 40000 nM and the remaining activity at 10 µM is 83.5 ± 1.3%. For the same molecule, in data set [3], the “Prediction (BBB permeation)” value was “CNS+ (CNS+ (high BBB permeation predicted: Pe (10^−6 cm/s) > 4.00))” and the Effective permeability (Pe) was found to be 15.5 ± 0.44 ×10⁻⁶ cm/s. Besides, at MAO-B [6], the IC50 is 38 ± 3 nM, the “Selectivity index (SI) for MAO-B” value is listed as over 1052.6 and the remaining activity at 10 µM was 8.67 ± 2.3%.
Turning to `CN1C(C(=O)Nc2ccccn2)=C(O)c2ccccc2S1(=O)=O` [Piroxicam, reference compound], the “Bibliography Pe” value in data set [2] is 2.5 ×10⁻⁶ cm/s. Moreover, in data set [3], the “Experimental Pe” value was 2.37 ± 0.33 ×10^−6 cm/s and the “Prediction (BBB permeation)” value is listed as “CNS± (CNS± (BBB permeation uncertain: Pe (10^−6 cm/s) from 2.00 to 4.00))”.
